Laboratory results reported in ChEMBL document CHEMBL1159374, “Callysponginol sulfate A, an MT1-MMP inhibitor isolated from the marine sponge Callyspongia truncata” (J Nat Prod, 2003).
pIC50: −log10 of the molar value. Structures can show the parent of a compound that is named as a salt. The source made the active and inactive calls. The rule behind the calls is not given here.

Molecular target: Matrix metalloproteinase-14 (Homo sapiens, UniProt P50281)
Test: Inhibition of truncated recombinant MT1-MMP expressed in Escherichia coli JM109 after 1 hr by fluorescence assay

Row | Compound | Activity | pIC50
1 | CCCCCC/C=C\CCCCCCCCCCCCC#C[C@@H](O)C(=O)O | inactive | –
2 | CCCCCC/C=C\CCCCCCCCCCCCC#C[C@@H](OS(=O)(=O)O)C(=O)O [CALLYSPONGINOL SULFATE A] | – | 4.51
3 | CC(CC[C@@H](C)[C@H]1CC[C@H]2[C@@H]3C[C@H](OS(=O)(=O)O)[C@H]4C[C@H](OS(=O)(=O)O)[C@@H](OS(=O)(=O)O)C[C@]4(C)[C@H]3CC[C@]12C)C(C)(C)C (stereo partly drawn) [HALISTANOL SULFATE] | – | 4.60
